Holding throughout (experiment): KINOMEscan competitive binding, whole panel
The target of test [1] is T1, panel of 203 kinases (Homo sapiens, UniProt P51451).
T1 construct: purchased DiscoverX (KINOMEscan)
Particulars: 10 µM, n=1; kinase BLK; read-out: Percent inhibition BLK. An outline of the steps:
(§1)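 T7 phage-fused kinases; compound displaces immobilized ATP-site probe ligand; bead-bound kinase quantified; % inhibition reported.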

In test [2] the target is T2, panel of 203 kinases (Homo sapiens, UniProt P22455).
T2 construct: purchased DiscoverX (KINOMEscan)
The settings on record: 10 µM, n=1; kinase FGFR4; read-out: Percent inhibition FGFR4. In outline:
as §1

Test [3] addresses T3, panel of 203 kinases (Homo sapiens, UniProt P07332).
T3 construct: purchased DiscoverX (KINOMEscan)
Particulars: 10 µM, n=1; kinase FES; read-out: Percent inhibition FES. An outline of the steps: as §1

Test [4] concerns the target T4, panel of 203 kinases (Homo sapiens, UniProt P27361).
T4 construct: purchased DiscoverX (KINOMEscan)
The settings on record: 10 µM, n=1; kinase ERK1; read-out: Percent inhibition ERK1. In outline:
as §1

Test [5] concerns the target T5, panel of 203 kinases (Homo sapiens, UniProt Q5VT25).
T5 construct: purchased DiscoverX (KINOMEscan)
The settings on record: 10 µM, n=1; kinase MRCKA; read-out: Percent inhibition MRCKA. An outline of the steps:
as §1

Test [6] has as its target T6, panel of 203 kinases (Homo sapiens, UniProt P53779).
T6 construct: purchased DiscoverX (KINOMEscan)
The settings on record: 10 µM, n=1; kinase JNK3; read-out: Percent inhibition JNK3. In outline: as §1

For test [7], the target named is T7, panel of 203 kinases (Homo sapiens, UniProt Q8N752).
T7 construct: purchased DiscoverX (KINOMEscan)
T7 sequence (Q8N752 1-337): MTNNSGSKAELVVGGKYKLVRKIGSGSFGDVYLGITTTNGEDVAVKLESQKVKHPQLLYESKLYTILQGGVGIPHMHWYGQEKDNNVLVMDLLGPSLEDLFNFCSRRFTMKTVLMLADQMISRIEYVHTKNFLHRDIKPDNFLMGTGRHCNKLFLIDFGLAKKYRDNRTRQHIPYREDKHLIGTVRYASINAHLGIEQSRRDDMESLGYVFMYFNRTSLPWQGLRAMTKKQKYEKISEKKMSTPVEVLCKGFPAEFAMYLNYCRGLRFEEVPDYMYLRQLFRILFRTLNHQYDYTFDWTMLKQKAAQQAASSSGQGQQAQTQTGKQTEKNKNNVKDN
Particulars: 10 µM, n=1; kinase CSNK1A1L; read-out: Percent inhibition CSNK1A1L. In outline: as §1

For test [8], the target named is T8, panel of 203 kinases (Homo sapiens, UniProt P19784).
T8 construct: purchased DiscoverX (KINOMEscan)
The settings on record: 10 µM, n=1; kinase CSNK2A2; read-out: Percent inhibition CSNK2A2. An outline of the steps:
as §1

Test [9] has as its target T9, panel of 203 kinases (Homo sapiens, UniProt P29323).
T9 construct: purchased DiscoverX (KINOMEscan)
T9 sequence (P29323 19-1055): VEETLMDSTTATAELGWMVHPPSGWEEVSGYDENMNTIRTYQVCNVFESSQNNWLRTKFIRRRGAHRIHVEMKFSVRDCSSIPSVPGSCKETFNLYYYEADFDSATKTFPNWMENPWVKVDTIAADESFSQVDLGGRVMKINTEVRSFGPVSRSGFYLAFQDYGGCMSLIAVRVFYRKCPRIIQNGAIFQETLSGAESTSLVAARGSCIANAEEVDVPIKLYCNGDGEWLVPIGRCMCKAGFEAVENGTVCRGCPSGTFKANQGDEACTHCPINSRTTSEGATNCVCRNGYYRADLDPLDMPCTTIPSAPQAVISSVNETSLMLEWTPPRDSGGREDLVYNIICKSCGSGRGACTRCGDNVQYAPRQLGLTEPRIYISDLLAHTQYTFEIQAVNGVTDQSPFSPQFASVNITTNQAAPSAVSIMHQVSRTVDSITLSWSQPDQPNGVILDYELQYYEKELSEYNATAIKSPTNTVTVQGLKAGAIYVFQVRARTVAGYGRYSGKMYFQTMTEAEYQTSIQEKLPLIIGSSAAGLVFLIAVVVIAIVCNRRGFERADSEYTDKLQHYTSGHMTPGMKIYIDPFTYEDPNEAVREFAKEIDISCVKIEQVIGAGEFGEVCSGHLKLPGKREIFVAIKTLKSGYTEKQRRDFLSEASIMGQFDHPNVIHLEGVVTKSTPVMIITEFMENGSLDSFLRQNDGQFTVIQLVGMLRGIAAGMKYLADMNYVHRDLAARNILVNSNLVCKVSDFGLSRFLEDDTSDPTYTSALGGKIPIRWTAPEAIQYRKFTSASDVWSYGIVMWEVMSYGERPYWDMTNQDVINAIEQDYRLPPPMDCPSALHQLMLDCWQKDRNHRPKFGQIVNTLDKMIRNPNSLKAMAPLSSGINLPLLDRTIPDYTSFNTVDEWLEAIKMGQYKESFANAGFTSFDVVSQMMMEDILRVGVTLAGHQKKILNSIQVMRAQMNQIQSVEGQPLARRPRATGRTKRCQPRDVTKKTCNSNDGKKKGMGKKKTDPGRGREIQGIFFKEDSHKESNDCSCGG
The settings on record: 10 µM, n=1; kinase EPHB2; read-out: Percent inhibition EPHB2. In outline:
as §1

In test [10] the target is T10, panel of 203 kinases (Homo sapiens, UniProt P53778).
T10 construct: purchased DiscoverX (KINOMEscan)
T10 sequence (P53778 1-367): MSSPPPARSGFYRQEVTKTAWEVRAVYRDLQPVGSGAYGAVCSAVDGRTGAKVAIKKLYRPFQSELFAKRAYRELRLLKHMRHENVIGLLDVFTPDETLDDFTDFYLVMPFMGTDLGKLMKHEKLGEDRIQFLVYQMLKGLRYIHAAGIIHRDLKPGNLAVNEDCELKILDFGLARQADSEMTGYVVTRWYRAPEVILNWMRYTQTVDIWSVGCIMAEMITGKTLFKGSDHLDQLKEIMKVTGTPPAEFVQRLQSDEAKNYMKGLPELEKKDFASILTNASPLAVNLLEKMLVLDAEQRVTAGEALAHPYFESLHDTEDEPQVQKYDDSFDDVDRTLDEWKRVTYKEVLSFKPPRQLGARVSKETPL
The settings on record: 10 µM, n=1; kinase p38-gamma; read-out: Percent inhibition p38-gamma. An outline of the steps: as §1

In test [11] the target is T11, panel of 203 kinases (Homo sapiens, UniProt P06213).
T11 construct: purchased DiscoverX (KINOMEscan)
Particulars: 10 µM, n=1; kinase INSR; read-out: Percent inhibition INSR. An outline of the steps:
as §1

Data on ten molecules can be found in PMC9927415, “Tyrosine Kinase Inhibitors Display Potent Activity against Cryptosporidium parvum” (Microbiology Spectrum, 2022).

Structures are written as SMILES.

`CN1CCN(c2ccc(Nc3nccc(-c4cnn5ncccc45)n3)cc2C#N)CC1` [Compound 1]: the inhibition (commonly the share of the control response that was lost under treatment) at 10 µM on panel of 203 kinases [1] was 84.8%; at panel of 203 kinases [2] it was 0%; on panel of 203 kinases [3], 66.7%; on panel of 203 kinases [4], 98.5%; at panel of 203 kinases [5], 0%; at panel of 203 kinases [6] it was 100%. The inhibition at 10 µM turned out to be 100% on panel of 203 kinases [7]; 96.3% at panel of 203 kinases [8]; 0% on panel of 203 kinases [9]; 0% at panel of 203 kinases [10]; 94.3% at panel of 203 kinases [11].
On to `COc1ccc(Nc2nccc(-c3cnn4ncccc34)n2)cc1` [Compound 2], for which the inhibition at 10 µM is 63.8% on panel of 203 kinases [1]; 0% on panel of 203 kinases [2]; 84.9% at panel of 203 kinases [3]; 98.5% at panel of 203 kinases [4]; 0% at panel of 203 kinases [5]; 100% on panel of 203 kinases [6]. Moreover, the inhibition at 10 µM was 89.7% at panel of 203 kinases [7]; 74.2% on panel of 203 kinases [8]; 0% on panel of 203 kinases [9]; 88.4% on panel of 203 kinases [10]; 76.9% on panel of 203 kinases [11].
In the case of `Cc1ccc(O)cc1Nc1ccnc(Nc2cccc(C(N)=O)c2)n1` [Compound 3], the inhibition at 10 µM was found to be 99.6% on panel of 203 kinases [1]; 82.4% at panel of 203 kinases [2]; 96.7% on panel of 203 kinases [3]; 67.8% at panel of 203 kinases [4]; 0% at panel of 203 kinases [5]; 94.2% at panel of 203 kinases [6]. Also, the inhibition at 10 µM on panel of 203 kinases [7] is 99.8%; at panel of 203 kinases [8] it was 0%; on panel of 203 kinases [9], 100%; on panel of 203 kinases [10] it was 0%; at panel of 203 kinases [11], 0%.
As to `Cc1ccc(O)cc1N(C)c1ccnc(Nc2cccc(S(N)(=O)=O)c2)n1` [Compound 4], the inhibition at 10 µM came to 99.4% at panel of 203 kinases [1]; 0% on panel of 203 kinases [2]; 100% on panel of 203 kinases [3]; 98.1% on panel of 203 kinases [4]; 87% on panel of 203 kinases [5]; 96.1% on panel of 203 kinases [6]. Besides, the inhibition at 10 µM at panel of 203 kinases [7] came to 100%; at panel of 203 kinases [8], 0%; at panel of 203 kinases [9], 100%; on panel of 203 kinases [10] it was 93%; on panel of 203 kinases [11], 0%.
Consider `Fc1cccc(COc2ccc(Nc3ncnc4c3CN(CCN3CCOCC3)CC4)cc2Cl)c1` [Compound 6], for which the inhibition at 10 µM at panel of 203 kinases [1], at panel of 203 kinases [2], on panel of 203 kinases [3], on panel of 203 kinases [4], at panel of 203 kinases [5] and at panel of 203 kinases [6] was 0% throughout. Besides, the inhibition at 10 µM at panel of 203 kinases [7], on panel of 203 kinases [8], at panel of 203 kinases [9], at panel of 203 kinases [10] and on panel of 203 kinases [11] was 0% in each case.
In the case of `COc1cc(Nc2nccc(-c3sc(N)nc3-c3cccc(NC(=O)c4c(F)cccc4F)c3)n2)cc(OC)c1OC` [Compound 7], the inhibition at 10 µM turned out to be 99% on panel of 203 kinases [1]; 100% on panel of 203 kinases [2]; 99.8% at panel of 203 kinases [3]; 99.8% at panel of 203 kinases [4]; 100% at panel of 203 kinases [5]; 100% on panel of 203 kinases [6]. For the same molecule, the inhibition at 10 µM on panel of 203 kinases [7] turned out to be 0%; at panel of 203 kinases [8] it was 0%; on panel of 203 kinases [9], 99.4%; on panel of 203 kinases [10] it was 0%; at panel of 203 kinases [11], 97.3%.
On to `C[C@@H](Oc1cc(-c2cnc3ccccn23)sc1C(N)=O)c1ccccc1Cl` [Compound 8], for which the inhibition at 10 µM worked out at 0% on panel of 203 kinases [1]; 0% at panel of 203 kinases [2]; 0% at panel of 203 kinases [3]; 83.2% on panel of 203 kinases [4]; 0% on panel of 203 kinases [5]; 0% on panel of 203 kinases [6]. The inhibition at 10 µM was found to be 0% on panel of 203 kinases [7]; 95.2% at panel of 203 kinases [8]; 0% at panel of 203 kinases [9]; 0% on panel of 203 kinases [10]; 0% on panel of 203 kinases [11].
On to `c1ccc(COc2cccc(-c3ccnc4[nH]ccc34)c2)cc1` [Compound 9], for which the inhibition at 10 µM at panel of 203 kinases [1], at panel of 203 kinases [2], at panel of 203 kinases [3], on panel of 203 kinases [4], at panel of 203 kinases [5] and at panel of 203 kinases [6] was 0% in each case. Also, the inhibition at 10 µM on panel of 203 kinases [7], at panel of 203 kinases [8], at panel of 203 kinases [9], at panel of 203 kinases [10] and at panel of 203 kinases [11] was 0% throughout.
With `Clc1ccc(Nc2ncc(-c3ccccc3)s2)cc1` [Compound 10], the inhibition at 10 µM at panel of 203 kinases [1], on panel of 203 kinases [2], on panel of 203 kinases [3], on panel of 203 kinases [4], on panel of 203 kinases [5] and on panel of 203 kinases [6] was 0% in each case. Further, the inhibition at 10 µM at panel of 203 kinases [7], at panel of 203 kinases [8], at panel of 203 kinases [9], at panel of 203 kinases [10] and at panel of 203 kinases [11] was 0% in each case.
Turning to `Nc1ncc2c(-c3ccncc3)c[nH]c2n1` [Compound 11], the inhibition at 10 µM on panel of 203 kinases [1] was found to be 0%; at panel of 203 kinases [2] it was 0%; on panel of 203 kinases [3] it was 0%; at panel of 203 kinases [4] it was 0%; at panel of 203 kinases [5], 0%; at panel of 203 kinases [6], 97.1%. For the same molecule, the inhibition at 10 µM on panel of 203 kinases [7] is 70.7%; at panel of 203 kinases [8], 0%; on panel of 203 kinases [9] it was 62.6%; at panel of 203 kinases [10] it was 0%; on panel of 203 kinases [11], 0%.
